Source: patent publication US11447486B2, “2-amino-benzimidazole derivatives and their use as 5-lipoxygenase and/or prostaglandin E synthase inhibitors” (INSTITUT PASTEUR KOREA, priority 2014, dated 2022)

Assays:
Rat whole blood (RWB) = assay: LTB4 secretion assay in RWB (rat whole blood); assay type: cell-based; settings: Rattus norvegicus
Method in brief: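 LTB4 release was measured by EIA in supernatants of pooled, sodium heparin rat blood (male Sprague Dawley, 6-9 weeks) diluted 1:1 with RPMI. Compounds (2.5 nM to 50 uM) were added 15 min before A23187 (10 uM final), with 10 min stimulation at 37 °C before ice-cold PBS quench.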

[1] = system: Rat basophilic leukemia (RBL) cells; assay: LTB4 secretion assay in RBL (rat basophilic leukemia cells); assay type: cell-based; settings: Rattus norvegicus, RBL
Method in brief: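 LTB4 released into supernatant was measured by EIA after 10 min at 37 °C with arachidonic acid (2.5 uM final) and calcium ionophore A23187 (5 uM final). Before stimulation, cells plated 2×10^4/well overnight received compound doses (5 nM to 100 uM) for 15 min in 0.5% FBS medium.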

human 5-LOX = target: T1, human 5-LOX (Homo sapiens, UniProt P09917); assay: 5-LOX enzyme activity, fluorescence method (5-HPETE, H2DCFDA); assay type: biochemical; settings: read-out: 5-LO (IC50)
T1 construct: purchased Cayman 60402; host or cells: insect cells (lysate)
T1 sequence (P09917 1-674): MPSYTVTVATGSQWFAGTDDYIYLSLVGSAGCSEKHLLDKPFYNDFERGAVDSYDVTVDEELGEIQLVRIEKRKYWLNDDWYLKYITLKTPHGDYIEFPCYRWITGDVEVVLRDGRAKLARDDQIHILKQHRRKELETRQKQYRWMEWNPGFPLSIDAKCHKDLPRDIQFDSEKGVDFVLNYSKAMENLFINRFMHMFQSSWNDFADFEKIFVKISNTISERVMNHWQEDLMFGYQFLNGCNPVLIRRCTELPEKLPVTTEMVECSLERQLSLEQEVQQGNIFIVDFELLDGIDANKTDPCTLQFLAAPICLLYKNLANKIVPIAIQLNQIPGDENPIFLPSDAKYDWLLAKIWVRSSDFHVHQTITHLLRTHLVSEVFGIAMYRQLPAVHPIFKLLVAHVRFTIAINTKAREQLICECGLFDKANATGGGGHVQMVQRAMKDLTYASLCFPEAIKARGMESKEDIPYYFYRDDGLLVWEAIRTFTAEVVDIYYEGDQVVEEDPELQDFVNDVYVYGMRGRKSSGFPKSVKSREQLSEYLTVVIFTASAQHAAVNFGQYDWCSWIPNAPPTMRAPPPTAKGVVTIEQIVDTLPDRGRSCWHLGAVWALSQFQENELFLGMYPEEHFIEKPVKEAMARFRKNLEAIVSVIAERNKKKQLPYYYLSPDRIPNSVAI
Method in brief: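 Fluorescence-based read-out, run entirely at room temperature. Enzyme mixture was exposed to a dose range of compound from 0.5 nM to 10 uM for 5 min before ATP and arachidonic acid were added to final levels of 100 uM and 3 uM.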

SMILES | EC50 (Rat whole blood (RWB)) | EC50 [1] | IC50 (human 5-LOX)
Cn1nc(Nc2ccc3nc(NCc4ccc(Oc5ccc(Cl)cn5)cc4)n(C)c3c2)cc1C(F)(F)F [Compound 502] | < 10 µM | < 10 µM | 1000 to 10000 nM
CN(C)c1nc2ccc(NCc3ccc(-c4ccc(Cl)cn4)cc3)cc2[nH]1 [Compound 197] | > 20 µM | < 10 µM | < 1000 nM
Cn1c(NCc2ccc(Oc3ncc(Cl)cn3)cc2)nc2ccc(Nc3nc(C(F)(F)F)cs3)cc21 [Compound 494] | < 10 µM | < 10 µM | 1000 to 10000 nM
Nc1ccc2c(c1)nc(N1CCCC1)n2CCOc1ccc(OC(F)(F)F)cc1 [Compound 55] | > 20 µM | < 10 µM | 1000 to 10000 nM
Cn1c(NCc2ccc(Oc3ncc(Cl)cn3)cc2)nc2ccc(Nc3nc(C(F)(F)F)co3)cc21 [Compound 493] | < 10 µM | < 10 µM | 1000 to 10000 nM
Cn1c(NCc2ccc(Oc3ccc(C(F)(F)F)cn3)cc2)nc2ccc(NC3COC3)cc21 [Compound 284] | < 10 µM | < 10 µM | < 1000 nM
Cn1c(NCc2ccc(OCc3ncco3)cc2)nc2ccc(NC3COC3)cc21 [Compound 343] | 10 to 20 µM | > 20 µM | < 1000 nM
Clc1ccc(Oc2ccc(CNc3nc4cc(NC5COC5)ccc4[nH]3)cc2)cc1 [Compound 125] | < 10 µM | < 10 µM | < 1000 nM
Cn1nc(C(F)(F)F)cc1Nc1ccc2nc(NCc3ccc(Oc4ncc(Cl)cn4)cc3)n(C)c2c1 [Compound 526] | < 10 µM | < 10 µM | 1000 to 10000 nM
CC(Nc1ccc2nc(N(C)C)[nH]c2c1)c1ccc(Oc2ccc(Cl)cn2)cc1 (stereo not drawn) [Compound 152] | 10 to 20 µM | < 10 µM | < 1000 nM
CCn1c(NCc2ccc(Oc3ncc(Cl)cn3)cc2F)nc2ccc(Nc3cc(C(F)(F)F)n(C)n3)cc21 [Compound 506] | < 10 µM | < 10 µM | > 10000 nM
CCn1c(NCc2ccc(Oc3ncc(Cl)cn3)cc2)nc2ccc(Nc3cc(C)[nH]n3)cc21 [Compound 476] | < 10 µM | < 10 µM | < 1000 nM
Cn1ccc(Nc2ccc3nc(NCc4ccc(Oc5ncc(Cl)cn5)cc4)n(C)c3c2)n1 [Compound 414] | < 10 µM | < 10 µM | < 1000 nM
Nc1ccc2[nH]c(NCc3ccc(Sc4ccc(Cl)cc4)cc3)nc2c1 [Compound 92] | < 10 µM | < 10 µM | < 1000 nM
Cn1c(NCc2ccc(Oc3ncc(Br)cn3)cc2)nc2ccc(NC3COC3)cc21 [Compound 362] | < 10 µM | 10 to 20 µM | < 1000 nM
Cn1c(NCc2ccc(Oc3ccc4cc(F)ccc4n3)cc2)nc2ccc(NC3COC3)cc21 [Compound 383] | > 20 µM | < 10 µM | < 1000 nM
Cn1c(NCCOc2ccc(OC(F)(F)F)cc2Cl)nc2ccc(N)cc21 [Compound 56] | 10 to 20 µM | < 10 µM | < 1000 nM
CC(C)(C)Nc1nc2ccc(N)cc2n1CCOc1ccc(OC(F)(F)F)cc1 [Compound 65] | < 10 µM | < 10 µM | < 1000 nM
Cc1cc(Nc2ccc3nc(NCc4ccc(Oc5ccc(OC(F)(F)F)cn5)cc4)n(C)c3c2)n[nH]1 [Compound 496] | < 10 µM | < 10 µM | < 1000 nM
CCC(Nc1nc2ccc(Nc3cc(C(C)C)[nH]n3)cc2n1C)c1ccc(Oc2ncc(Cl)cn2)cc1 (stereo not drawn) [Compound 529] | < 10 µM | < 10 µM | < 1000 nM
CC(Nc1nc2cc(N)ccc2[nH]1)c1ccc(Cl)cc1Cl (stereo not drawn) [Compound 74] | 10 to 20 µM | < 10 µM | < 1000 nM
Nc1ccc2[nH]c(NCc3ccc(Oc4ccc(OC(F)(F)F)cc4)cc3)nc2c1 [Compound 88] | < 10 µM | < 10 µM | < 1000 nM
CC(C)(O)CNc1nc2ccc(N)cc2n1Cc1ccc(Oc2ccc(Cl)cc2)cc1 [Compound 165] | < 10 µM | < 10 µM | < 1000 nM
Cc1cc(Nc2ccc3nc(NCc4ccc(Oc5ccc(Cl)cn5)cc4)n(C)c3c2)n[nH]1 [Compound 466] | < 10 µM | < 10 µM | < 1000 nM

SMILES | EC50 (Rat whole blood (RWB)) | EC50 [1] | IC50 (human 5-LOX)
CCC(Nc1nc2ccc(NC3COC3)cc2n1C)c1ccc(Oc2ncc(C(F)(F)F)cn2)cc1 (stereo not drawn) [Compound 547] | < 10 µM | < 10 µM | < 1000 nM
Cn1c(NCc2ccc(Oc3ccc(Cl)cn3)cc2)nc2ccc(Nc3cc[nH]n3)cc21 [Compound 449] | < 10 µM | < 10 µM | < 1000 nM
CN(C)c1ccc2nc(NCc3ccc(Oc4ccc(Cl)cn4)cc3)n(C)c2c1 [Compound 253] | < 10 µM | < 10 µM | < 1000 nM
CCn1c(NCc2ccc(Oc3ncc(Cl)cn3)cc2)nc2c(F)cc(NC3COC3)cc21 [Compound 555] | 10 to 20 µM | 10 to 20 µM | < 1000 nM
CCn1c(NCc2ccc(Oc3ncc(C(F)(F)F)cn3)cc2)nc2ccc(Nc3ccn(C)n3)cc21 [Compound 525] | < 10 µM | < 10 µM | < 1000 nM
Cn1c(NCc2c(F)cc(Oc3ncc(Cl)cn3)cc2F)nc2ccc(NC3COC3)cc21 [Compound 431] | < 10 µM | < 10 µM | < 1000 nM
Cn1c(NCc2ccc(OCc3ccc(Cl)cn3)cc2)nc2ccc(NC3COC3)cc21 [Compound 315] | > 20 µM | 10 to 20 µM | < 1000 nM
Cn1c(NCc2ccc(Oc3ccc(Cl)cc3)nc2)nc2ccc(NC3COC3)cc21 [Compound 307] | > 20 µM | 10 to 20 µM | < 1000 nM
Cn1c(NCc2ccc(Oc3ccc(Cl)cn3)nc2)nc2ccc(NC3COC3)cc21 [Compound 309] | > 20 µM | > 20 µM | < 1000 nM
c1ccc(Oc2ccc(CNc3nc4cc(NC5COC5)ccc4[nH]3)cc2)cc1 [Compound 87] | < 10 µM | < 10 µM | < 1000 nM
Cn1c(NCc2ccc(Oc3ncc(Cl)cn3)c(Cl)c2)nc2ccc(NC3COC3)cc21 [Compound 392] | < 10 µM | < 10 µM | < 1000 nM
Cc1[nH]nc(Nc2ccc3nc(NCc4ccc(Oc5ncc(Cl)cn5)cc4)n(C)c3c2)c1C [Compound 474] | < 10 µM | < 10 µM | < 1000 nM
CC(Nc1nc2cc(N)ccc2[nH]1)c1ccc(Oc2ccc(Cl)cc2)cc1 (stereo not drawn) [Compound 110] | < 10 µM | < 10 µM | < 1000 nM
CCn1c(NCc2ccc(Oc3ncc(Cl)cn3)cc2)nc2ccc(Nc3n[nH]c(C)c3Cl)cc21 [Compound 512] | < 10 µM | < 10 µM | < 1000 nM
CC(C)(Nc1ccc2[nH]c(NCc3ccc(Oc4ccc(Cl)cn4)cc3)nc2c1)C(N)=O [Compound 177] | < 10 µM | < 10 µM | < 1000 nM
Nc1ccc2nc(NCCO)n(Cc3ccc(Oc4ccc(Cl)cc4)cc3)c2c1 [Compound 155] | < 10 µM | < 10 µM | < 1000 nM
Cc1cc(Nc2ccc3nc(NCc4ccc(Oc5ncc(Cl)cn5)cc4)n(CCC(F)(F)F)c3c2)n[nH]1 [Compound 491] | < 10 µM | < 10 µM | < 1000 nM
Cn1c(NCc2ccc(Oc3ncc(Cl)cn3)cc2)nc2c(F)cc(NC3COC3)cc21 [Compound 554] | < 10 µM | 10 to 20 µM | < 1000 nM
Cn1c(NCc2ccc(Oc3ncc(Cl)cn3)cc2)nc2ccc(Nc3cc(C(F)(F)F)[nH]n3)cc21 [Compound 475] | < 10 µM | < 10 µM | < 1000 nM
Cn1c(NCc2ccc(Oc3ccc(Cl)cc3)cc2)nc2ccc(N3CC(F)(F)C3)cc21 [Compound 193] | < 10 µM | < 10 µM | > 10000 nM
Nc1ccc2[nH]c(NCc3ccc(Oc4ccccc4)cc3)nc2c1 [Compound 80] | < 10 µM | < 10 µM | < 1000 nM
Nc1ccc2[nH]c(NCCc3ccc(F)cc3)nc2c1 [Compound 32] | < 10 µM | < 10 µM | < 1000 nM
Nc1ccc2[nH]c(N3CCC(Oc4ccc(Cl)cn4)C3)nc2c1 (stereo not drawn) [Compound 160] | > 20 µM | < 10 µM | < 1000 nM
CN(C)c1nc2ccc(N3CCC(Oc4ccc(OC(F)(F)F)cc4)C3)cc2[nH]1 (stereo not drawn) [Compound 105] | > 20 µM | < 10 µM | < 1000 nM
